Data published in publication PMC6292453 (Biochemical Journal, 2018).

Biological target: T1, P450ZoGa (CYP236A2, WP_013995999) (Zobellia galactanivorans, UniProt G0L713)
T1 sequence (G0L713 1-387): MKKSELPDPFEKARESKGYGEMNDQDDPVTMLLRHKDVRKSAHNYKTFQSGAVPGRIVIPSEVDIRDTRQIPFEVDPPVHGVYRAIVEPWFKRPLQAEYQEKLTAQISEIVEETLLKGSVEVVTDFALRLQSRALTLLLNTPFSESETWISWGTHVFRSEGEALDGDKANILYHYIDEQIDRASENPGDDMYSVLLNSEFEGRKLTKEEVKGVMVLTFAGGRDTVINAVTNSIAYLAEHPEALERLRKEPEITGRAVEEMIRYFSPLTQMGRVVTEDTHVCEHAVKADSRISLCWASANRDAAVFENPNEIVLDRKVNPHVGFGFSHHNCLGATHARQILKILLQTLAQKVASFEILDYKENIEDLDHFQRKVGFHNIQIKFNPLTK
Assay: crystal structure of soaked complex
Type: binding

Kd: 980 ± 120 µM
Compound: COC[C@H]1OC(O)[C@H](O)[C@@H](O)[C@H]1O (stereo partly drawn) [G6Me, 6-O-methyl-D-galactose]
